{"source": "patent US20050043379A1", "about": "“LTA4H Modulators” (priority 2003, published 2005)", "note": "Counter-ions that a name gives are not always drawn.", "data": [{"test_system": "colitis symptoms", "assay": "not given", "conditions": "eight weeks of treatment; cited from earlier work", "values": [{"smiles": "CN(CCCOc1ccc(Cc2ccccc2)cc1)CCC(=O)O.Cl", "note": "[SC57461]", "colitis symptoms": "significantly improved colitis symptoms"}]}, {"test_system": "ionophore-induced LTB4 production", "assay": "not given", "conditions": "oral administration; cited from earlier work", "values": [{"smiles": "CN(CCCOc1ccc(Cc2ccccc2)cc1)CCC(=O)O.Cl", "note": "[SC57461]", "inhibition of ionophore-induced LTB4 production in mouse blood ex vivo": "caused inhibition of ionophore-induced LTB4 production"}]}, {"test_system": "ionophore-induced LTB4 production", "assay": "not given", "conditions": "oral administration; cited from earlier work", "remark": "another data set of the same source", "values": [{"smiles": "CN(CCCOc1ccc(Cc2ccccc2)cc1)CCC(=O)O.Cl", "note": "[SC57461]", "inhibition of ionophore-induced LTB4 production in rat peritoneum in vivo": "caused inhibition of ionophore-induced LTB4 production"}]}, {"test_system": "neutrophil influx (myeloperoxidase activity) in arachidonic acid-treated ear", "assay": "Murine arachidonic acid-induced inflammation model: neutrophil influx by myeloperoxidase (MPO) activity in ear biopsies", "assay_type": "in vivo, mouse (female Balb/c)", "conditions": "Mus musculus, TABLE 7, 30 mg/kg oral gavage, ear biopsies 3 h after topical arachidonic acid (given 60 min after dose), read-out: % Inh. MPO", "procedure": "(§1) Murine Arachidonic Acid-induced Inflammation Model LTA4H inhibitor compounds of the present invention were dissolved in 20% cyclodextran/H2O at a concentration of 3 mg/mL. The solutions were administered by oral gavage to female Balb/c mice weighing approximately 20 grams each (0.2 mL per mouse, 30 mg of LTA4H inhibitor compound per kg). Sixty minutes after being administered an LTA4 inhibitor, each mouse received topical application of 20 μL of arachidonic acid (100 mg/mL in acetone) to the left ear and 20 μL of acetone only to the right ear. After 3 h, the mice were sacrificed, blood was withdrawn in heparinized syringes, and 8 mm ear biopsies were taken. Ear biopsies were weighed to determine edema and then frozen at -80° C. until needed for determination of neutrophil influx. Neutrophil influx was quantified by measuring the activity of myeloperoxidase (MPO), a neutrophil-specific enzyme. […] Debris was removed by centrifugation at 14000×g for 10 min. […] The microtiter plate contents were held at room temperature for 1 h. The reaction was stopped by addition of 100 μ[…] H2SO4 to each sample well, and the myeloperoxidase activity in each sample was determined from the absorbance at 405 nm. The background value from the right ear, treated only with acetone, was subtracted from that for the left ear, treated with arachidonic acid in acetone, for each animal. The percent inhibition of neutrophil influx (% Inh. MPO) by compounds of the invention was determined by comparison to animals treated identically, except that the solution administered by oral gavage was devoid of inhibitor compound.", "units": {"inhibition at 30 mg/kg": "%"}, "values": [{"smiles": "c1ccc2oc(Oc3ccc(OCCN4CCCCC4)cc3)nc2c1", "note": "[Example 11, 2-[4-(2-Piperidin-1-yl-ethoxy)-phenoxy]-benzooxazole]", "inhibition at 30 mg/kg": 95}, {"smiles": "OC1CCN(CCOc2ccc(Oc3nc4ccccc4o3)cc2)CC1", "note": "[Example 14, 1-{2-[4-(Benzooxazol-2-yloxy)-phenoxy]-ethyl}-piperidin-4-ol]", "inhibition at 30 mg/kg": 56}, {"smiles": "OC1(c2ccccc2)CCN(CCCOc2ccc(Oc3nc4ccccc4o3)cc2)CC1", "note": "[Example 27, 1-{3-[4-(Benzooxazol-2-yloxy)-phenoxy]-propyl}-4-phenyl-piperidin-4-ol]", "inhibition at 30 mg/kg": 72}]}, {"test_system": "neutrophil influx (myeloperoxidase activity) in arachidonic acid-treated ear", "assay": "Murine arachidonic acid-induced inflammation model: neutrophil influx by myeloperoxidase (MPO) activity in ear biopsies", "assay_type": "in vivo, mouse (female Balb/c)", "conditions": "Mus musculus, TABLE 8, 30 mg/kg oral gavage, ear biopsies 3 h after topical arachidonic acid (given 60 min after dose), read-out: % Inh. MPO", "procedure": "as §1", "units": {"inhibition at 30 mg/kg": "%"}, "values": [{"smiles": "O=C(O)C1CCN(CCc2ccc(Oc3nc4ccccc4s3)cc2)CC1", "note": "[Example 150, 1-{2-[4-(Benzothiazol-2-yloxy)-phenyl]-ethyl}-piperidine-4-carboxylic acid]", "inhibition at 30 mg/kg": 91}, {"smiles": "O=C(O)C1CCCN(CCc2ccc(Oc3nc4ccccc4s3)cc2)C1", "note": "(stereo not drawn) [Example 155, 1-{2-[4-(Benzothiazol-2-yloxy)-phenyl]-ethyl}-piperidine-3-carboxylic acid]", "inhibition at 30 mg/kg": 93}, {"smiles": "c1ccc2sc(Oc3ccc(OCCn4nnnc4C4CCNCC4)cc3)nc2c1", "note": "[Example 206, 2-{4-[2-(5-Piperidin-4-yl-tetrazol-1-yl)-ethoxy]-phenoxy}-benzothiazole]", "inhibition at 30 mg/kg": 76}, {"smiles": "O=C(O)C1CCN(Cc2ccc(Oc3nc4ccccc4s3)cc2)CC1", "note": "[Example 250, 1-[4-(Benzothiazol-2-yloxy)-benzyl]-piperidine-4-carboxylic acid]", "inhibition at 30 mg/kg": 94}, {"smiles": "OCC1CCCCN1CCOc1ccc(Oc2nc3ccccc3s2)cc1", "note": "(stereo not drawn) [Example 263, (1-{2-[4-(Benzothiazol-2-yloxy)-phenoxy]-ethyl}-piperidin-2-yl)-methanol]", "inhibition at 30 mg/kg": 19}, {"smiles": "NC(=O)C1CCN(Cc2ccc(Oc3nc4ccccc4s3)cc2)CC1", "note": "[Example 274, 1-[4-(Benzothiazol-2-yloxy)-benzyl]-piperidine-4-carboxylic acid amide]", "inhibition at 30 mg/kg": 87}, {"smiles": "O=C(CO)N1CCN(CCc2ccc(Oc3nc4ccccc4s3)cc2)CC1", "note": "[Example 325, 1-(4-{2-[4-(Benzothiazol-2-yloxy)-phenyl]-ethyl}-piperazin-1-yl)-2-hydroxy-ethanone]", "inhibition at 30 mg/kg": 67}, {"smiles": "O=C1C[C@H](O)CN1C1CCN(CCc2ccc(Oc3nc4ccccc4s3)cc2)CC1", "note": "[Example 336, (S)-1-(1-{2-[4-(Benzothiazol-2-yloxy)-phenyl]-ethyl}-piperidin-4-yl)-4-hydroxy-pyrrolidin-2-one]", "inhibition at 30 mg/kg": 0}, {"smiles": "CS(=O)(=O)NC1CCN(Cc2ccc(Oc3nc4ccccc4s3)cc2)CC1", "note": "[Example 361, N-{1-[4-(Benzothiazol-2-yloxy)-benzyl]-piperidin-4-yl}-methanesulfonamide]", "inhibition at 30 mg/kg": 90}, {"smiles": "O=C1C[C@@H](O)CN1C1CCN(Cc2ccc(Oc3nc4ccccc4s3)cc2)CC1", "note": "[Example 446, 1-{1-[4-(Benzothiazol-2-yloxy)-benzyl]-piperidin-4-yl}-4-hydroxy-pyrrolidin-2-one]", "inhibition at 30 mg/kg": 43}, {"smiles": "O=C1C[C@H](O)CN1C1CCN(Cc2ccc(Oc3nc4ccccc4s3)cc2)CC1", "note": "[Example 447, 1-{1-[4-(Benzothiazol-2-yloxy)-benzyl]-piperidin-4-yl}-4-hydroxy-pyrrolidin-2-one]", "inhibition at 30 mg/kg": 48}]}, {"test_system": "neutrophil influx (myeloperoxidase activity) in arachidonic acid-treated ear", "assay": "Murine arachidonic acid-induced inflammation model: neutrophil influx by myeloperoxidase (MPO) activity in ear biopsies", "assay_type": "in vivo, mouse (female Balb/c)", "conditions": "Mus musculus, po, read-out: % Inh. MPO", "procedure": "as §1", "units": {"inhibition at 30 mg/kg": "%"}, "values": [{"smiles": "O=C(O)C1CCN(CCOc2ccc(Oc3nc4ccccc4s3)cc2)CC1", "note": "[Example 18, 1-{2-[4-(Benzothiazol-2-yloxy)-phenoxy]-ethyl}-piperidine-4-carboxylic acid potassium salt]", "inhibition at 30 mg/kg": 83}]}]}
